Experimental data taken from US10800758B2, “Pyrimidine compound” (OTSUKA PHARMACEUTICAL CO., LTD., priority 2017, dated 2020).

Assays:
Type in all cases: in vivo
[1] = system: ICR mice; assay: Subcutaneous pentylenetetrazole (scPTZ) model; details: Mus musculus; male ICR mice, 30 mg/kg oral, 85 mg/kg pentylenetetrazole s.c. after 1 hour, evaluated for 30 minutes; read-out: rate of suppression against clonic convulsions
Protocol: This test is performed to evaluate the anticonvulsant activity of the compound as in Test Example 2. Unlike the phenotype of Test Example 2, the animal model used in this test is a phenotype model of generalized absence seizure and myoclonic seizure.
The test compound was suspended in 5% gum arabic/distilled water (w/v), and administered by forced oral administration to male ICR mice (Japan SLC, Inc., 5 to 6 weeks old, 10 per group) at a dose of 30 mg/kg. After 1 hour, 85 mg/kg of pentylenetetrazole dissolved in saline was administered subcutaneously, and the occurrence of clonic convulsions was evaluated for 30 minutes.

[2] = system: DBA/2 mice; assay: Audiogenic seizure model; details: Mus musculus; male and female DBA/2 mice, 30 mg/kg oral, auditory stimulation 1 hour after administration; read-out: Seizure suppression rate (%)
Protocol: The animal model used in this test is a phenotype model for partial seizure (including secondary generalized seizure) and generalized tonic-clonic seizure, and has high clinical predictability. This test was performed in accordance with the report of De Sarro et al (Br J Pharmacol. 1988 February; 93(2): 247-56. Anticonvulsant effects of some calcium entry blockers in DBA/2 mice. De Sarro G B, Meldrum B S, Nistico G.).
In this test example, the example compounds shown in Table 3 below were used as test compounds. The following compound (compound of Example 5 of WO 2004/009559), which is the most similar compound when the substituent position is taken into consideration, was used as a comparative example compound.
The test compounds were suspended in 5% gum arabic/distilled water (w/v), and administered by forced oral administration to male and female DBA/2 mice (Japan SLC, Inc., 3 weeks old, 8 per group) at a dose of 30 mg/kg. After one hour of the oral administration of the test compound, each mouse was placed in a transparent acrylic cylinder 30 cm high and 23 cm in diameter, and 30 seconds were allowed for habituation. Then, they were exposed to auditory stimulation (12.6 kHz, 100-110 dB) for 1 minute or until a tonic seizure occurred.
The seizure response was assessed using the following scale, 0: no seizure, 1: wild running, 2: clonic seizure, 3: tonic seizure and 4: respiratory arrest. The maximum response was recorded as the seizure severity score.
The seizure suppression rate for each compound administration group was calculated according to the following formula.

[3] = system: ICR mice; assay: Maximal electroshock seizure (MES) model; details: Mus musculus; male ICR mice, 30 mg/kg oral, electrical stimulation (30 mA, 100 Hz, 0.2 second) 1 hour after administration; read-out: rate of seizure suppression (tonic hindlimb extension seizure)
Protocol: This test is performed to evaluate the anticonvulsant activity of the compound. The mouse model used in this test is a phenotype model of generalized tonic-clonic seizure and secondary generalized partial seizure. This test was performed in accordance with the report of AJ Hill et al (Br J Pharmacol. 2012 December; 167(8): 1629-42. Cannabidivarin is anticonvulsant in mouse and rat, Hill A J, et al.).
The test compound was suspended in 5% gum arabic/distilled water (w/v), and administered by forced oral administration to male ICR mice (Japan SLC, Inc., 5 to 6 weeks old, 8 per group) at a dose of 30 mg/kg. After one hour of the oral administration of the test compound, the mice were stimulated by an application of electrical current (30 mA, 100 Hz, 0.2 second) through auricular electrodes using an electroconvulsive device (UGO BASILE SRL). Then, the incidence of tonic hindlimb extension seizure was recorded. In this test, tonic hindlimb extension seizures were induced in all mice of the solvent administration group, but the rate of seizure suppression was 75% or more with the example compounds 1, 2, 3, 5, 8, 10, 12, 13, 14, 16, 18, 22, 26, 28, 30, 31, 38, 42, 47, 48 and 54, and the suppression rate was 50% or more with the example compounds 4, 6, 9, 11, 23, 41 and 45.

O=C1CCN(c2cnc(Oc3cccc(Br)c3)nc2)C(=O)N1 [Example 44]
responders at 30 mg/kg [1]: ≥ 50% | inhibition in vivo at 30 mg/kg [2]: 85%

O=C1CCN(c2cnc(Oc3cccc(OC(F)(F)F)c3)nc2)C(=O)N1 [Example 10]
responders at 30 mg/kg [3]: ≥ 75% | inhibition in vivo at 30 mg/kg [2]: 86%

O=C1CCN(c2cnc(Oc3cccc(SC(F)(F)F)c3)nc2)C(=O)N1 [Example 23]
responders at 30 mg/kg [1]: ≥ 75% | responders at 30 mg/kg [3]: ≥ 50% | inhibition in vivo at 30 mg/kg [2]: 100%

O=C1CCN(c2cnc(Oc3ccccc3F)nc2)C(=O)N1 [Example 2, 1-[2-(2-Fluorophenoxy)pyrimidin-5-yl]-5,6-dihydropyrimidine-2,4(1H,3H)-dione]
responders at 30 mg/kg [1]: ≥ 75% | responders at 30 mg/kg [3]: ≥ 75% | inhibition in vivo at 30 mg/kg [2]: 100%

O=c1ccn(-c2cnc(Oc3cccc(F)c3)nc2)c(=O)[nH]1 [Example 41]
responders at 30 mg/kg [1]: ≥ 50% | responders at 30 mg/kg [3]: ≥ 50% | inhibition in vivo at 30 mg/kg [2]: 96%

O=c1ccn(-c2cnc(Oc3ccccc3)nc2)c(=O)[nH]1 [Example 4, 1-(2-Phenoxypyrimidin-5-yl)pyrimidine-2,4(1H,3H)-dione]
responders at 30 mg/kg [1]: ≥ 75% | responders at 30 mg/kg [3]: ≥ 50% | inhibition in vivo at 30 mg/kg [2]: 100%

O=C1CCN(c2cnc(Sc3cccc(F)c3)nc2)C(=O)N1 [Example 31]
responders at 30 mg/kg [3]: ≥ 75% | inhibition in vivo at 30 mg/kg [2]: 79%

O=C1CCN(c2cnc(Oc3cccc(S(F)(F)(F)(F)F)c3)nc2)C(=O)N1 [Example 24]
inhibition in vivo at 30 mg/kg [2]: 90%

Cc1cc(C)cc(Oc2ncc(N3CCC(=O)NC3=O)cn2)c1 [Example 37]
inhibition in vivo at 30 mg/kg [2]: 77%

COc1nc(Oc2ccc(F)cc2)ncc1N1CCC(=O)NC1=O [Example 48]
responders at 30 mg/kg [3]: ≥ 75% | inhibition in vivo at 30 mg/kg [2]: 96%

O=C1CCN(c2cnc(Oc3c(F)cccc3F)nc2)C(=O)N1 [Example 13]
responders at 30 mg/kg [1]: ≥ 75% | responders at 30 mg/kg [3]: ≥ 75% | inhibition in vivo at 30 mg/kg [2]: 100%

C#Cc1cccc(Oc2ncc(N3CCC(=O)NC3=O)cn2)c1 [Example 28]
responders at 30 mg/kg [1]: ≥ 75% | responders at 30 mg/kg [3]: ≥ 75% | inhibition in vivo at 30 mg/kg [2]: 100%

COc1nc(Oc2c(F)cccc2F)ncc1N1CCC(=O)NC1=O [Example 52]
inhibition in vivo at 30 mg/kg [2]: 93%

O=C1CCN(c2cnc(Oc3ccccc3)nc2)C(=O)N1 [Example 1, 1-(2-Phenoxypyrimidin-5-yl)-5,6-dihydropyrimidine-2,4(1H,3H)-dione]
responders at 30 mg/kg [1]: ≥ 75% | responders at 30 mg/kg [3]: ≥ 75% | inhibition in vivo at 30 mg/kg [2]: 100%

Cc1ccc(F)cc1Oc1ncc(N2CCC(=O)NC2=O)cn1 [Example 38]
responders at 30 mg/kg [3]: ≥ 75% | inhibition in vivo at 30 mg/kg [2]: 100%

C[Si](C)(C)c1cccc(Oc2ncc(N3CCC(=O)NC3=O)cn2)c1 [Example 56]
responders at 30 mg/kg [1]: ≥ 50% | inhibition in vivo at 30 mg/kg [2]: 82%

O=C1CCN(c2cnc(Oc3ccc(F)cc3F)nc2)C(=O)N1 [Example 12]
responders at 30 mg/kg [1]: ≥ 50% | responders at 30 mg/kg [3]: ≥ 75% | inhibition in vivo at 30 mg/kg [2]: 96%

COc1nc(Oc2ccccc2)ncc1N1CCC(=O)NC1=O [Example 18]
responders at 30 mg/kg [3]: ≥ 75% | inhibition in vivo at 30 mg/kg [2]: 100%

O=C1CCN(c2cnc(Oc3cc(F)cc(F)c3)nc2)C(=O)N1 [Example 14]
responders at 30 mg/kg [1]: ≥ 75% | responders at 30 mg/kg [3]: ≥ 75% | inhibition in vivo at 30 mg/kg [2]: 92%

COc1nc(Oc2ccccc2F)ncc1N1CCC(=O)NC1=O [Example 47]
responders at 30 mg/kg [3]: ≥ 75% | inhibition in vivo at 30 mg/kg [2]: 87%

COc1nc(Oc2cc(F)cc(F)c2)ncc1N1CCC(=O)NC1=O [Example 54]
responders at 30 mg/kg [3]: ≥ 75% | inhibition in vivo at 30 mg/kg [2]: 93%

Cc1c(F)cccc1Oc1ncc(N2CCC(=O)NC2=O)cn1 [Example 6, 1-[2-(3-Fluoro-2-methylphenoxy)pyrimidin-5-yl]-5,6-dihydropyrimidine-2,4(1H,3H)-dione]
responders at 30 mg/kg [3]: ≥ 50% | inhibition in vivo at 30 mg/kg [2]: 89%

O=C1CCN(c2ccccc2)C(=O)N1 [Comparative Example, reference compound]
inhibition in vivo at 30 mg/kg [2]: 27%

O=C1CCN(c2cnc(Oc3cccc(F)c3)nc2)C(=O)N1 [Example 3, 1-[2-(3-Fluorophenoxy)pyrimidin-5-yl]-5,6-dihydropyrimidine-2,4(1H,3H)-dione]
responders at 30 mg/kg [1]: ≥ 75% | responders at 30 mg/kg [3]: ≥ 75% | inhibition in vivo at 30 mg/kg [2]: 100%

CC1CC(=O)NC(=O)N1c1cnc(Oc2ccccc2)nc1 (centres unmarked) [Example 16]
responders at 30 mg/kg [3]: ≥ 75% | inhibition in vivo at 30 mg/kg [2]: 100%

O=C1CCN(c2cnc(Oc3cccc(-c4ccccc4)c3)nc2)C(=O)N1 [Example 45]
responders at 30 mg/kg [3]: ≥ 50% | inhibition in vivo at 30 mg/kg [2]: 92%

O=C1CCN(c2cnc(Oc3ccc(F)c(F)c3)nc2)C(=O)N1 [Example 15]
inhibition in vivo at 30 mg/kg [2]: 83%

CCc1cccc(Oc2ncc(N3CCC(=O)NC3=O)cn2)c1 [Example 7, 1-[2-(3-Ethylphenoxy)pyrimidin-5-yl]-5,6-dihydropyrimidine-2,4(1H,3H)-dione]
inhibition in vivo at 30 mg/kg [2]: 88%

COc1nc(Oc2cccc(F)c2)ncc1N1CCC(=O)NC1=O [Example 42]
responders at 30 mg/kg [1]: ≥ 50% | responders at 30 mg/kg [3]: ≥ 75% | inhibition in vivo at 30 mg/kg [2]: 96%

O=C1CCN(c2cnc(Oc3ccc(F)cc3)nc2)C(=O)N1 [Example 11]
responders at 30 mg/kg [1]: ≥ 75% | responders at 30 mg/kg [3]: ≥ 50% | inhibition in vivo at 30 mg/kg [2]: 97%

O=C1CCN(c2cnc(Sc3ccccc3)nc2)C(=O)N1 [Example 8, 1-[2-(Phenylthio)pyrimidin-5-yl]-5,6-dihydropyrimidine-2,4(1H,3H)-dione]
responders at 30 mg/kg [3]: ≥ 75% | inhibition in vivo at 30 mg/kg [2]: 100%

C#Cc1ccc(Oc2ncc(N3CCC(=O)NC3=O)cn2)cc1 [Example 50]
inhibition in vivo at 30 mg/kg [2]: 82%

O=C1CCN(c2cnc(Oc3ccc(Cl)cc3)nc2)C(=O)N1 [Example 40]
inhibition in vivo at 30 mg/kg [2]: 81%

CN1C(=O)CCN(c2cnc(Oc3cccc(F)c3)nc2)C1=O [Example 5, 1-[2-(3-Fluorophenoxy)pyrimidin-5-yl]-3-methyl-5,6-dihydropyrimidine-2,4(1H,3H)-dione]
responders at 30 mg/kg [1]: ≥ 75% | responders at 30 mg/kg [3]: ≥ 75% | inhibition in vivo at 30 mg/kg [2]: 100%

O=C1CCN(c2cnc(-c3ccccc3)nc2)C(=O)N1 [Example 30]
responders at 30 mg/kg [3]: ≥ 75% | inhibition in vivo at 30 mg/kg [2]: 97%

O=C1CCN(c2cnc(Oc3cccc(Cl)c3)nc2)C(=O)N1 [Example 26]
responders at 30 mg/kg [1]: ≥ 50% | responders at 30 mg/kg [3]: ≥ 75% | inhibition in vivo at 30 mg/kg [2]: 100%

Cc1cccc(Oc2ncc(N3CCC(=O)NC3=O)cn2)c1 [Example 22]
responders at 30 mg/kg [1]: ≥ 75% | responders at 30 mg/kg [3]: ≥ 75% | inhibition in vivo at 30 mg/kg [2]: 100%

COc1cccc(Oc2ncc(N3CCC(=O)NC3=O)cn2)c1 [Example 21]
inhibition in vivo at 30 mg/kg [2]: 93%

O=C1CCN(c2cnc(Oc3cccc(C(F)(F)F)c3)nc2)C(=O)N1 [Example 9]
responders at 30 mg/kg [3]: ≥ 50% | inhibition in vivo at 30 mg/kg [2]: 94%

COc1nc(Oc2ccc(F)cc2F)ncc1N1CCC(=O)NC1=O [Example 53]
inhibition in vivo at 30 mg/kg [2]: 83%

[2H]C([2H])([2H])Oc1cccc(Oc2ncc(N3CCC(=O)NC3=O)cn2)c1 [Example 25]
inhibition in vivo at 30 mg/kg [2]: 89%
